In data set [1] the test system is in vitro differentiated cardiomyocytes. Put plainly: Cardiotoxic effect of doxorubicin on in vitro differentiated cardiomyocytes. Particulars: according to Example 4 of WO2005/005621, FIG. 4. It counts as cell-based, mouse. On the procedure: (§1) FIGS. 1-4: Effect of different vinca alkaloids (FIGS. 1-3) and doxorubicin (FIG. 4) on the viability and rate of survival of in vitro differentiated cardiomyocytes. EBs were generated and cardiac cells were differentiated as described in Example 1. Photomicrographs were taken before treatment and 48 and 72 hours after treatment. Fluorescent areas representing cardiac cells were measured and calculated as described in Example 2 and 3. Cor.At refers to in vitro differentiated cardiomyocytes and MEF to Mouse Embryonic Fibroblasts.
Thereafter, Example 2, supra, is modified in that doxorubin (doxorubicinhydrochlorid) together with vinblastin, vincristin or vinorelbin is added at different concentrations and reversed dilution series to the cell culture.

Data set [2] shares this test system. Put plainly: Survival of in vitro differentiated cardiomyocytes in embryoid bodies (GFP fluorescent area). Format: cell-based, mouse. Particulars: ES cell-derived cardiomyocytes, after 72 hours, fluorescent area compared with before treatment. On the procedure: as §1
The generation of “embryoid bodies” (EBs) from high density cell suspensions and differentiation of cardiac cells was essentially performed as described in Example 1 of international application WO2005/005621, the disclosure content of which is hereby incorporated by reference in its entirety. Briefly, mouse embryonic stem cells (ES cells, clone D3, ATCC CRL 1934) were stably transfected with the paMHC-GFP vector containing the gene of the green fluorescent protein under control of the cardiac α-myosin heavy chain (α-MHC) promotor. To obtain this vector, a 5.5 kb fragment containing the promoter region of the mouse α-myosin heavy chain gene (Genbank 471441) was introduced into the polylinker of the pEGFP-1 vector (Clontech Laboratories). […]
To generate EBs, ES cells were cultured in suspension at a density of 2×10^6 cells/ml in a 6 cm petri dish (Greiner, Darmstadt, Germany) in 4 ml IMDM with 20% FCS (Invitrogen, Karlsruhe, Germany) at 37° C., 5% CO2, 95% humidity on a rocking table (GFL 3006, GFL, Braunschweig, Germany) at 50 rpm for 6 hours. […] On day 14, fluorescent areas representing cardiac cells were detected by fluorescence microscopy using a Zeiss Axiovert 200M with a 10x Achroplan objective, a HQ-filterset for GFP (AF Analysentechnik, Tubingen, Germany) and a Sensicam 12 bit cooled imaging system (PCO Imaging, Kelheim, Germany). […]

The values that follow come from patent US20110081325A1, “NOVEL TREATMENT OF HEART DISEASES” (Axiogenesis AG, priority 2008, published 2011).

For `COc1cccc2c1C(=O)c1c(O)c3c(c(O)c1C2=O)C[C@@](O)(C(=O)CO)C[C@@H]3O[C@H]1C[C@H](N)[C@H](O)[C@H](C)O1` [doxorubicin], the “cardiotoxic effect on cardiomyocytes” value in data set [1] is listed as “cardiotoxic effect”.

As to `CC[C@]1(O)C[C@@H]2CN(CCc3c([nH]c4ccccc34)[C@@](C(=O)OC)(c3cc4c(cc3OC)N(C)[C@H]3[C@@](O)(C(=O)OC)[C@H](OC(C)=O)[C@]5(CC)C=CCN6CC[C@]43[C@@H]65)C2)C1` [vinblastin], the “survival of in vitro differentiated cardiomyocytes” value in data set [2] is “increase survival”.

Turning to `CC[C@]1(O)C[C@H]2CN(CCc3c([nH]c4ccccc34)[C@@](C(=O)OC)(c3cc4c(cc3OC)N(C=O)[C@H]3[C@@](O)(C(=O)OC)[C@H](OC(C)=O)[C@]5(CC)C=CCN6CC[C@]43[C@@H]65)C2)C1` [vincristin], in data set [2], the “survival of in vitro differentiated cardiomyocytes” value is recorded as “increase survival”.

As for `CCC1=C[C@@H]2CN(C1)Cc1c([nH]c3ccccc13)[C@@](C(=O)OC)(c1cc3c(cc1OC)N(C)[C@H]1[C@@](O)(C(=O)OC)[C@H](OC(C)=O)[C@]4(CC)C=CCN5CC[C@]31[C@@H]54)C2` [vinorelbin], the “survival of in vitro differentiated cardiomyocytes” value in data set [2] is on record as “increase survival”.
